How the values were obtained:
Assay type in all cases: cell-based
Settings in all cases: with inhibitor at 4 μg/mL
[1] = tested on: E. coli 25922; assay: Broth microdilution MIC (strain enzymes: None detected)
[2] = tested on: K. pneumoniae ESBL 7 #1; assay: Broth microdilution MIC (strain enzymes: SHV-12, TEM-1)
[3] = tested on: K. pneumoniae ESBL 10; assay: as above
[4] = tested on: K. pneumoniae 329633; assay: Broth microdilution MIC (strain enzymes: SHV-5, TEM-1)
[5] = tested on: E. coli 3174; assay: Broth microdilution MIC (strain enzymes: TEM-1, CTXM-15)
[6] = tested on: K. pneumoniae 170375; assay: Broth microdilution MIC (strain enzymes: SHV-12, CTX-M15 and TEM-1)
[7] = tested on: E. coli 3327; assay: Broth microdilution MIC (strain enzymes: TEM-1, SHV-12)
[8] = tested on: K. pneumoniae 153239; assay: Broth microdilution MIC (strain enzymes: SHV-11, TEM-1)
[9] = tested on: E. coli SI-M004; assay: Broth microdilution MIC (strain enzymes: SHV-2, GES-12)
[10] = tested on: E. coli SI-PBLII; assay: Broth microdilution MIC (strain enzymes: CTX-M2, TEM-1)
[11] = tested on: K. pneumoniae 11/23 LF#2; assay: microbe, parasite or virus in culture
[12] = tested on: K. pneumoniae KP 8; assay: Broth microdilution MIC (strain enzymes: TEM-10, TEM-1, CTX-M15)
[13] = tested on: K. pneumoniae SI-KP NO30; assay: Broth microdilution MIC (strain enzymes: TEM-26b, SHV-60, SHV-26)
[14] = tested on: E. coli SI-AIRT-4; assay: Broth microdilution MIC (strain enzymes: TEM-1)
[15] = tested on: E. coli BAS 1; assay: Broth microdilution MIC (strain enzymes: none detected)
[16] = tested on: E. coli SI-LP377; assay: microbe, parasite or virus in culture
[17] = tested on: E. coli ESBL 4; assay: Broth microdilution MIC (strain enzymes: CTX-M15, TEM-1)
[18] = tested on: K. pneumoniae KI (KCl); assay: Broth microdilution MIC (strain enzymes: TEM-10)
[19] = tested on: E. coli 2806; assay: Broth microdilution MIC (strain enzymes: SHV-12, TEM-1)

O=C(O)[C@H]1/C(=C/CO)O[C@@H]2CC(=O)N21 [Clavulanic acid, clavulanic acid, reference compound]
MIC of cefalexin (LEX) [1]: 0.25 µg/mL | MIC of cefdinir (CDR) [1]: 0.25 µg/mL | MIC of cefixime (CFM) [1]: 0.5 µg/mL | MIC of ceftibuten (CTB) [1]: 0.5 µg/mL | MIC of cefalexin (LEX) [2]: 0.5 µg/mL | MIC of cefdinir (CDR) [2]: 0.5 µg/mL | MIC of cefixime (CFM) [2]: 0.25 µg/mL | MIC of ceftibuten (CTB) [2]: 0.125 µg/mL | MIC of cefalexin (LEX) [3]: 0.5 µg/mL | MIC of cefdinir (CDR) [3]: 0.5 µg/mL | MIC of cefixime (CFM) [3]: 0.125 µg/mL | MIC of ceftibuten (CTB) [3]: 0.125 µg/mL | MIC of cefalexin (LEX) [4]: 0.25 µg/mL | MIC of cefdinir (CDR) [4]: 0.25 µg/mL | MIC of cefixime (CFM) [4]: 0.03 µg/mL | MIC of ceftibuten (CTB) [4]: 0.03 µg/mL | MIC of cefalexin (LEX) [5]: 0.25 µg/mL | MIC of cefdinir (CDR) [5]: 0.25 µg/mL | MIC of cefixime (CFM) [5]: 0.5 µg/mL | MIC of ceftibuten (CTB) [5]: 0.5 µg/mL | MIC of cefalexin (LEX) [6]: 1 µg/mL | MIC of cefdinir (CDR) [6]: 1 µg/mL | MIC of cefixime (CFM) [6]: 0.5 µg/mL | MIC of ceftibuten (CTB) [6]: 0.06 µg/mL | MIC of cefalexin (LEX) [7]: 0.5 µg/mL | MIC of cefdinir (CDR) [7]: 0.5 µg/mL | MIC of cefixime (CFM) [7]: 2 µg/mL | MIC of ceftibuten (CTB) [7]: 1 µg/mL | MIC of cefalexin (LEX) [8]: 0.25 µg/mL | MIC of cefdinir (CDR) [8]: 0.25 µg/mL | MIC of cefixime (CFM) [8]: 0.25 µg/mL | MIC of ceftibuten (CTB) [8]: 0.06 µg/mL | MIC of cefalexin (LEX) [9]: 0.5 µg/mL | MIC of cefdinir (CDR) [9]: 0.5 µg/mL | MIC of cefixime (CFM) [9]: 1 µg/mL | MIC of ceftibuten (CTB) [9]: 0.5 µg/mL | MIC of cefalexin (LEX) [10]: 0.5 µg/mL | MIC of cefdinir (CDR) [10]: 0.5 µg/mL | MIC of cefixime (CFM) [10]: 1 µg/mL | MIC of ceftibuten (CTB) [10]: 0.5 µg/mL | MIC of cefalexin (LEX) [11]: 0.5 µg/mL | MIC of cefdinir (CDR) [11]: 0.5 µg/mL | MIC of cefixime (CFM) [11]: 2 µg/mL | MIC of ceftibuten (CTB) [11]: 0.25 µg/mL | MIC of cefalexin (LEX) [12]: 0.125 µg/mL | MIC of cefdinir (CDR) [12]: 0.125 µg/mL | MIC of cefixime (CFM) [12]: 0.06 µg/mL | MIC of ceftibuten (CTB) [12]: 0.06 µg/mL | MIC of cefalexin (LEX) [13]: 0.125 µg/mL | MIC of cefdinir (CDR) [13]: 0.125 µg/mL | MIC of cefixime (CFM) [13]: 0.06 µg/mL | MIC of ceftibuten (CTB) [13]: 0.06 µg/mL | MIC of cefalexin (LEX) [14]: 0.25 µg/mL | MIC of cefdinir (CDR) [14]: 0.25 µg/mL | MIC of cefixime (CFM) [14]: 0.25 µg/mL | MIC of ceftibuten (CTB) [14]: 0.5 µg/mL | MIC of cefalexin (LEX) [15]: 16 µg/mL | MIC of cefdinir (CDR) [15]: 16 µg/mL | MIC of cefixime (CFM) [15]: >32 µg/mL | MIC of ceftibuten (CTB) [15]: >32 µg/mL | MIC of cefalexin (LEX) [16]: 1 µg/mL | MIC of cefdinir (CDR) [16]: 1 µg/mL | MIC of cefixime (CFM) [16]: 0.5 µg/mL | MIC of ceftibuten (CTB) [16]: 0.125 µg/mL | MIC of cefalexin (LEX) [17]: 1 µg/mL | MIC of cefdinir (CDR) [17]: 1 µg/mL | MIC of cefixime (CFM) [17]: 1 µg/mL | MIC of ceftibuten (CTB) [17]: 0.5 µg/mL | MIC of cefalexin (LEX) [18]: 0.125 µg/mL | MIC of cefdinir (CDR) [18]: 0.125 µg/mL | MIC of cefixime (CFM) [18]: 0.125 µg/mL | MIC of ceftibuten (CTB) [18]: 0.06 µg/mL | MIC of cefalexin (LEX) [19]: 0.25 µg/mL | MIC of cefdinir (CDR) [19]: 0.25 µg/mL | MIC of cefixime (CFM) [19]: 1 µg/mL | MIC of ceftibuten (CTB) [19]: 0.25 µg/mL

— patent US12544395B2, “Combination compositions comprising a beta-lactamase inhibitor and uses thereof” (priority 2018, dated 2026)
